The test system of experiment [1] is CHO cells. In words: Protein translation assay (puromycin incorporation in CHO cells, unstressed or Tg-stressed). As to conditions: for activity at 0.1 µM / activity at 1 µM: Cricetulus griseus, media alone 100%; for activity at 0.1 µM: read-out: % Recovery of protein expression (100 nM test compound). It is filed as cell-based, Chinese hamster. How it is done:
CHO cells were maintained at 37° C. and 5% CO2 in DMEM supplemented with 10% fetal bovine serum (FBS), 2 mM L-glutamine, 100 U/ml penicillin, and 100 μg/ml streptomycin. After reaching 80% of confluence, cells were detached and seeded on 6 well plates in complete media, allowed to recover overnight and treated for 2 hours with 1 μM of the test compound (to assess protein synthesis levels in unstressed condition), or for 1 hour with 100 nM and 1 μM of the test compound and then co-treated with 300 nM Tg and 100 nM and 1 μM of the test compound (to assess the recovery of protein synthesis in a stressed condition). Cells treated with Tg alone were used as controls.
After the 2 hours treatments, media were replaced by adding 10 μg/ml puromycin (Sigma Aldrich) in complete media for 30 min. Media were removed and cells were lysed with SDS-PAGE lysis buffer. Lysates were transferred to 1.5 ml tubes and sonicated for 3 minutes and total protein amount were quantified using BCA Protein Assay Kit (Pierce). Equal amount of protein (30 μg) was loaded on SDS-PAGE gels. Proteins were transferred onto 0.2 μm PVDF membranes (BioRad) and probed with primary antibodies diluted in Tris-buffered saline supplemented with 0.1% Tween 20 and 3% bovine serum albumin.
Puromycin (12D10) antibody was used as primary antibody (Merck Millipore). A HRP-conjugated secondary antibody (Rockland) was employed to detect immune-reactive bands using enhanced chemiluminescence (ECL Western Blotting Substrate, Pierce). Quantification of protein bands was done by densitometry using ImageJ.
Percent increase of protein synthesis in unstressed cells (without Tg treatment) in the presence of media alone or certain test compounds is shown in Table 3 and FIG. 2. The percentage levels were normalized to the media alone condition, which correspond to 100% protein synthesis.
Percent recovery of protein synthesis in stressed cells (with Tg treatment) due to the test compounds at 100 nM or 1 μM is shown in FIGS. 3A and 3B, respectively, and in Table 3. The levels were normalized to the media alone and to Tg alone conditions, which correspond to 100% and 0% respectively.

Experiment [2] relates to ATF4. Description: ATF4 expression inhibition assay (thapsigargin-stressed HEK293T cells, western blot). It is filed as cell-based. As to conditions: Homo sapiens, HEK-293T; for inhibition at 0.1 µM: 3 h with 100 nM thapsigargin (Tg) and 100 nM test compound; for inhibition at 0.1 µM / inhibition at 1 µM: Tg alone 0%, untreated 100%; for inhibition at 1 µM: 3 h with 100 nM thapsigargin (Tg) and 1 μM test compound; for IC50: 3 h with 100 nM Tg, test compound 1 nM to 1 μM. The method, then:
HEK293T cells were maintained at 37° C. and 5% CO2 in Dulbecco's Modified Eagle's Media (DMEM) supplemented with 10% fetal bovine serum (FBS), 2 mM L-glutamine, 100 U/ml penicillin, and 100 μg/ml streptomycin. […] Cells without treatment or cells treated with Tg alone were used as controls.
After 3 hours of treatment with Tg and the test compound, cells were lysed with SDS-PAGE lysis buffer. Lysates were transferred to 1.5 ml tubes and sonicated for 3 min, and total protein amounts were quantified using BCA Protein Assay Kit (Pierce). Equal amount of proteins were loaded on SDS-PAGE gels. Proteins were transferred onto 0.2 μm PVDF membranes (BioRad) and probed with primary antibodies diluted in Tris-buffered saline supplemented with 0.1% Tween 20 and 3% bovine serum albumin.
ATF4 (11815) antibody was used as primary antibody (Cell Signaling Technologies). A horseradish peroxidase (HRP)-conjugated secondary antibody (Rockland) was employed to detect immune-reactive bands using enhanced chemiluminescence (ECL Western Blotting Substrate, Pierce). Quantification of protein bands was done by densitometry using ImageJ.
Percentages of ATF4 inhibition after induction with Tg in the presence of 100 nM or 1 μM of certain test compounds are shown in Table 2 and FIG. 1. Percentage of ATF4 inhibition was calculated as the percent reduction normalized to Tg treatment (0% inhibition) and untreated cells (100% inhibition). Also shown in Table 2 is the calculated IC50 for the test compounds. […] Accordingly, inhibition of ATF4 expression as a result of the test compound indicates suppression of the ISR pathway.
A general note: A western blot detects proteins with antibodies after separation by electrophoresis.

[3] abbreviates: CHO cells stressed with 300 nM Tg, Tg alone 0%.
The mark [4] stands for this setting: CHO cells stressed with 300 nM Tg, Tg alone 0%, read-out: % Recovery of protein expression (1 μM test compound).
The mark [5] stands for this setting: unstressed CHO cells, 2 h, read-out: % Protein expression relative to untreated (1 μM test compound).

Like-named read-outs stand apart in the source and are kept apart here.

For orientation: inhibition means the drop in the measured response relative to a control, in per cent. Low readings indicate a weak effect, high ones a strong effect. As for `O=C(COc1ccc(Cl)c(F)c1)N[C@H]1CC[C@H](NC(=O)c2cc3ccncc3o2)CC1` [Compound 24, trans-N-(4-(2-(4-chloro-3-fluorophenoxy)acetamido)cyclohexyl)furo[2,3-c]pyridine-2-carboxamide], the activity at 0.1 µM in experiment [1] (setting [3]) is 11.8%. Besides, the activity at 1 µM in experiment [1] (setting [4]) was 24.3%. In experiment [2], this compound had an inhibition at 0.1 µM of 18% and an inhibition at 1 µM of 54%.

Usually IC50 stands for the midpoint of a concentration-inhibition curve. A low value points to higher potency. Consider `O=C(NC1CCN(CCCOc2ccc(Cl)c(F)c2)CC1)c1ccc2cc(Cl)ccc2n1` [Compound 146, 6-chloro-N-(1-(3-(4-chloro-3-fluorophenoxy)propyl)piperidin-4-yl)quinoline-2-carboxamide], for which the activity at 0.1 µM in experiment [1] (setting [3]) came to 43.4%. For the same compound, the activity at 1 µM in experiment [1] (setting [4]) worked out at 265%. In addition, the activity at 1 µM in experiment [1] (setting [5]) is 246%. In experiment [2], this compound returned an IC50 of 49.9 nM, an inhibition at 0.1 µM of 88% and an inhibition at 1 µM of 100%.

As to `O=C(NC1CCN(CC(O)COc2ccc(Cl)c(F)c2)CC1)c1cc2cc(Cl)ccc2o1` (centres unmarked) [Compound 29, 5-chloro-N-(1-(3-(4-chloro-3-fluorophenoxy)-2-hydroxypropyl)piperidin-4-yl)benzofuran-2-carboxamide], in experiment [1] (setting [3]), the activity at 0.1 µM stood at 48.4%. For the same compound, in experiment [1] (setting [4]), the activity at 1 µM was 267%. For the same compound, the activity at 1 µM in experiment [1] (setting [5]) came to 186%. In experiment [2], this compound had an IC50 of 51.8 nM, an inhibition at 0.1 µM of 87% and an inhibition at 1 µM of 95%.

Turning to `O=C(COc1ccc(Cl)c(F)c1)N[C@@H]1CCCN(CC(O)COc2ccc(Cl)c(F)c2)C1` (stereo partly drawn) [Compound 12, 2-(4-chloro-3-fluorophenoxy)-N-((3R)-1-(3-(4-chloro-3-fluorophenoxy)-2-hydroxypropyl)piperidin-3-yl)acetamide], in experiment [2], at 0.1 µM the inhibition was 0% and at 1 µM the inhibition was 0%.

In experiment [2], `O=C(COc1ccc(Cl)c(F)c1)N[C@H]1CC[C@H](NC[C@H](O)COc2ccc(Cl)c(F)c2)CC1` (single isomer, unassigned) [Compound 7, (−)-2-(4-chloro-3-fluorophenoxy)-N-(4-((3-(4-chloro-3-fluorophenoxy)-2-hydroxypropyl)amino)cyclohexyl)acetamide] yielded an inhibition at 0.1 µM of 0% and an inhibition at 1 µM of 0%.

In experiment [2], `O=C(COc1ccc(Cl)c(F)c1)N[C@H]1CC[C@H](NC(=O)C(O)COc2ccc(Cl)c(F)c2)CC1` (stereo partly drawn) [Compound 9, trans-3-(4-chloro-3-fluorophenoxy)-N-(4-(2-(4-chloro-3-fluorophenoxy)acetamido)cyclohexyl)-2-hydroxypropanamide] yielded an inhibition at 0.1 µM of 12% and an inhibition at 1 µM of 20%.

As for `O=C(N[C@H]1CC[C@H](NCC(O)COc2ccc(Cl)c(F)c2)CC1)c1ccc2cc(Cl)ccc2n1` (stereo partly drawn) [Compound 30, trans-6-chloro-N-(4-((3-(4-chloro-3-fluorophenoxy)-2-hydroxypropyl)amino)cyclohexyl)quinoline-2-carboxamide], the activity at 0.1 µM in experiment [1] (setting [3]) is 23.1%. Further, the activity at 1 µM in experiment [1] (setting [4]) is 182%. For the same compound, the activity at 1 µM in experiment [1] (setting [5]) came to 206%. In addition, the protein translation result in experiment [1] (summary of Table 3) was “increased protein translation”. Moreover, the “protein synthesis in a cell versus ATF4 translation” value in experiment [1] (under ISR-stressed or non-ISR stressed conditions) was “increase protein synthesis in a cell without full inhibition of ATF4 translation”. In addition, in experiment [2], the IC50 was more than 3000 nM, testing at 0.1 µM gave an inhibition of 35% and the inhibition at 1 µM is 35%.

On to `O=C(COc1ccc(Cl)c(F)c1)NC1CCN(CC(O)COc2ccc(Cl)c(F)c2)CC1` (centres unmarked) [Compound 13, 2-(4-chloro-3-fluorophenoxy)-N-(1-(3-(4-chloro-3-fluorophenoxy)-2-hydroxypropyl)piperidin-4-yl)acetamide], for which the activity at 0.1 µM in experiment [1] (setting [3]) was 49.6%. Further, in experiment [1] (setting [4]), the activity at 1 µM came out at 159%. For the same compound, the activity at 1 µM in experiment [1] (setting [5]) is 94%. In addition, in experiment [2], the IC50 was 57.2 nM, the inhibition at 0.1 µM is 57% and at 1 µM the inhibition was 93%.

`O=C(N[C@H]1CC[C@H](NCC(O)COc2ccc(Cl)c(F)c2)CC1)c1cc2cc(Cl)ccc2o1` (single isomer, unassigned; (-)) [Compound 155, (−)-trans-5-chloro-N-(4-((3-(4-chloro-3-fluorophenoxy)-2-hydroxypropyl)amino)cyclohexyl)benzofuran-2-carboxamide]: the activity at 0.1 µM in experiment [1] (setting [3]) stood at 68.5%. Also, the activity at 1 µM in experiment [1] (setting [4]) came out at 190%. Moreover, the activity at 1 µM in experiment [1] (setting [5]) turned out to be 263%. In experiment [2], this compound gave an inhibition at 0.1 µM of 60% and an inhibition at 1 µM of 75%.

In experiment [2], `O=C(COc1ccc(Cl)cc1)N[C@H]1CC[C@H](NC(=O)C(O)COc2ccc(Cl)cc2)CC1` (stereo partly drawn) [Compound 8, trans-3-(4-chlorophenoxy)-N-(4-(2-(4-chlorophenoxy)acetamido)cyclohexyl)-2-hydroxypropanamide] yielded an inhibition at 0.1 µM of 0% and an inhibition at 1 µM of 0%.

In experiment [2], `O=C(COc1ccc(Cl)c(F)c1)N[C@H]1CCCN(CC(O)COc2ccc(Cl)c(F)c2)C1` (stereo partly drawn) [Compound 11, 2-(4-chloro-3-fluorophenoxy)-N-((3S)-1-(3-(4-chloro-3-fluorophenoxy)-2-hydroxypropyl)piperidin-3-yl)acetamide] came in with an inhibition at 0.1 µM of 0% and an inhibition at 1 µM of 0%.

`O=C(COc1ccc(Cl)cc1)N[C@H]1CC[C@H](NC(=O)C2CNc3cc(Cl)ccc3O2)CC1` (stereo partly drawn) [Compound 156, trans-6-chloro-N-(4-(2-(4-chlorophenoxy)acetamido)cyclohexyl)-3,4-dihydro-2H-benzo[b][1,4]oxazine-2-carboxamide]: in experiment [1] (setting [3]), the activity at 0.1 µM was found to be 25.1%. Also, the activity at 1 µM in experiment [1] (setting [4]) worked out at 200%. Besides, in experiment [1] (setting [5]), the activity at 1 µM was found to be 197%. Besides, in experiment [2], the IC50 is 16 nM, 0.1 µM produced 94% inhibition and at 1 µM the inhibition was 97%.

On to `O=C(COc1ccc(Cl)cc1)N[C@H]1CC[C@H](NC[C@H](O)COc2ccc(Cl)cc2)CC1` (single isomer, unassigned) [Compound 4, (−)-2-(4-chlorophenoxy)-N-(4-((3-(4-chlorophenoxy)-2-hydroxypropyl)amino)cyclohexyl)acetamide], for which, in experiment [2], the inhibition at 0.1 µM came to 31% and testing at 1 µM gave an inhibition of 54%.

In experiment [2], `O=C(COc1ccc(Cl)c(F)c1)N1CCC(NCC(O)COc2ccc(Cl)c(F)c2)CC1` (centres unmarked) [Compound 14, 2-(4-chloro-3-fluorophenoxy)-1-(4-((3-(4-chloro-3-fluorophenoxy)-2-hydroxypropyl)amino)piperidin-1-yl)ethan-1-one] returned an inhibition at 0.1 µM of 0% and an inhibition at 1 µM of 0%.

In the case of `O=C(COc1ccc(Cl)cc1)NC1CCN(C[C@@H](O)COc2ccc(Cl)cc2)CC1` (single isomer, unassigned) [Compound 16, (+)-2-(4-chlorophenoxy)-N-(1-(3-(4-chlorophenoxy)-2-hydroxypropyl)piperidin-4-yl)acetamide], in experiment [2], the inhibition at 0.1 µM was 0% and the inhibition at 1 µM amounted to 38%.

In experiment [2], `O=C(COc1ccc(Cl)c(F)c1)NC1CCN(C[C@@H](O)COc2ccc(Cl)c(F)c2)CC1` (single isomer, unassigned) [Compound 27, (+)-2-(4-chloro-3-fluorophenoxy)-N-(1-(3-(4-chloro-3-fluorophenoxy)-2-hydroxypropyl)piperidin-4-yl)acetamide] displayed an inhibition at 0.1 µM of 54% and an inhibition at 1 µM of 73%.

The values above are taken from patent publication US11230542B2, “Inhibitors of integrated stress response pathway” (Praxis Biotech LLC, priority 2017, dated 2022).
